Entries after “also recorded” stand apart in the source; their conditions may differ.
Tests used:
bovine REC [1] = assay: REC proliferation assay (MTS); assay type: cell-based
Procedure: REC proliferation and survival assays. 96-well plates were coated with various amounts of TN-C or vehicle. 5×10^3 cells were added to each triplicate well in low-serum REC medium with various amounts of growth factors (0.5% FCS incomplete BREC medium containing 10 ng/ml of human IGF-I, FGF-2, VEGF, PlGF and PDGF-BB [R&D Systems Inc., Minneapolis, Minn.]). Cell numbers were determined on days 4–7 using the MTS cell proliferation assay (Promega Corp.) according to manufacturer's instructions. Survival was measured in the same way using high glucose (30 mM) or chemical hypoxia (2 mM sodium azide) or serum-free medium to induce cell death. Cell numbers were determined on days 4–7 using MTS assay (Promega).

bovine REC [2] = assay: Secondary sprouting assay on reconstituted basement membrane matrix (MTS); assay type: cell-based
Procedure: (§1) In vitro MATRIGEL™ biological cell culture substrate assay of capillary-like tube formation and secondary sprouting. […] Briefly, 50 μL of reconstituted basement membrane matrix from mouse EHS tumor (BD or GFR MATRIGEL™ biological cell culture substrate; Becton Dickinson Labware, Bedford, Mass.) were dispensed with frozen pipettes into each well of a previously frozen, sterile 96-well plate sitting on wet ice and allowed to solidify for 1 hr at room temperature or 37° C. Approximately 5×10^4 or 7.5×10^4 REC in a 100 μL volume were seeded into each triplicate well. Human recombinant or purified growth factors were added to a final concentration of 10 ng/mL (or as noted) in 0.5% FCS incomplete BREC medium. Capillary-like tube structures formed by REC on reconstituted basement membrane matrix were photographed at various intervals ranging from 12–72 hr; pictures were scanned, digitized and analyzed using image-processing software.
For the secondary sprouting assay, cells on reconstituted basement membrane matrix were seeded as above but incubated in 0.5% FCS incomplete BREC medium without any growth factors for 3 days, allowing for tube formation and collapse. On day 3, human recombinant or purified growth factors were added to a final concentration of 10 ng/mL (or as noted) in low-serum incomplete BREC medium and incubated for another 5–6 days. Digital photographs were obtained with a Kodak MDS 100 camera attached to a Leitz DM IL inverted microscope. Digitized images obtained with a Kodak MDS 100 video camera were stored on compact discs and quantified with NIH Image 1.62 software. The number of living cells in the sprouting colonies were determined using the MTS cell proliferation assay.
A good correlation was observed between the spherical volume and the number of live cells in secondary sprouting colonies (not shown). Since the latter is an easy parameter to test by using the MTS assay, it was adopted as a faster method for studying the effect of various agents on secondary sprouting.

bovine REC [3] = assay: Migration (wound healing) assay; assay type: cell-based
Procedure: Migration assay. REC migration rates were examined in a wound healing assay, where cells migrate over time into the scrape wound in a monolayer. Briefly, cells were seeded in 24-well plates and allowed to reach confluence in growth medium. Prior to growth factor treatment, cells were serum-starved overnight in incomplete BREC medium with 0.5% FCS. All monolayers within an experiment were wounded with a single sterile wood stick of constant diameter, to ensure uniformity in the wound areas among different treatments. Wounded monolayers were then rinsed with low-serum medium to remove detached cells and treated with various combinations of human growth factors at 10 ng/mL each. On day 7, cells were rinsed 3× with PBS and fixed with methanol for 15 min, rehydrated with dH2O and stained with Meyer's hematoxylin for 5 min, followed by destaining with dH2O. All wells were photographed with a 4× or 10× objective using a Kodak MDS 100 digital camera attached to a Leitz DM IL inverted microscope. The original wound area was measured at 0 hr and used as a baseline for comparison to the treated wells at the conclusion of the experiment. The number of cells migrated into the wound was determined. Migrating cell counting was automated using the AAB (Advanced American Biotechnology, Fullerton, Calif.) software. Data were calculated and statistically analyzed (Spirin K S et al., Basement membrane and growth factor gene expression in normal and diabetic human retinas, Curr. Eye Res. 18:490–499 [1999]) relative to control cultures that received the same concentrations of bovine serum albumin instead of growth factors and/or inhibitor, compared to vehicle instead of inhibitor after wounding. Inhibitors were added 30 min before growth factors.

REC = assay: Capillary-like tube formation on MATRIGEL; assay type: cell-based, bovine
Procedure: as §1

[4] = test system: retinal neovascularization; assay: Oxygen-induced retinopathy in newborn mice; assay type: in vivo, mouse
[5] = Solubility of emodin in injection vehicle; assay type: physicochemical; details: phosphate-buffered saline with 20% PEG 400 + 2% Tween-80, pH 7.2
Procedure: A minimum of 5 mouse pups were used per group. Emodin at 20–30 μg/g of body mass (or 10 μl/g) was prepared as a solution (70% ethanol) or suspension (PEG-Tween) in vehicle. Vehicle (“emodin solvent”) was 70% ethanol in initial experiments. In three later experiments, phosphate-buffered saline with 20% polyethylene glycol 400 (PEG 400)+2% Tween-80, pH 7.2, was used as vehicle.

telomerase = assay: Telomerase assay (TRAP) in cultured endothelial cells; assay type: cell-based
Text: Cells in secondary sprouting colonies contained high telomerase activity (FIG. 10, 3rd column) when compared to the parental cells (1st column), as measured by telomerase assay (TRAP; Yang, J., et al., Stem and germline cells are among the only cells in postnatal tissues that continue to express telomerase activity, J. Biol. Chem. 274(37):26141–26148 [1999]; Hsiao, R. et al., Mature endothelial cells express very low levels of telomerase and it's lost during the first five divisions in vitro, Anticancer Res 17:827–832 [1997]; Kolquist, K A et al., Nature Genet 19:182–186 [1998] as reviewed by Chang E et al. J. Invest. Dermatol. 118:752–8. [2002]). This enzyme activity is either very low or absent in aging or differentiated cells, but it is high in precursors. (Armstrong et al., mTert expression correlates with telomerase activity during the differentiation of murine embryonic stem cells. Mech Dev. 2000. 97(1–2):109–116). Telomerase activity is also high in invasive and highly proliferative cancers but not in normal adult cells. (Blasco et al., Telomeres and telomerase. Genes & Development. 1999. 13:2353–2359).

[6] = test system: secondary sprouting colonies; assay: Marker expression in secondary sprouting colonies (RT-PCR, immunofluorescence); assay type: cell-based; details: treatment of secondary sprouting colonies
Procedure: Detection of markers expressed by cells selected from secondary sprouting colonies was carried out using reverse-transcriptase polymerase chain reaction (RT-PCR) with RNA derived from secondary sprouting cells, which was compared to RNA derived from non-sprouting cells. The RT-PCR method allows the detection of low-levels of message coding for the above-mentioned markers. Following manufacturer's instructions, RNA isolation was done with a QiaShredder kit (Qiagen) on isolated sprouts (scooped out of MATRIGEL™ biological cell culture substrate) followed by use of the RNAeasy kit (Qiagen), and the RT-reaction was conducted using a SMART cDNA kit (Clontech) and the RT-PCR protocol, as described in Hamdi et al., Biochem Biophys Res Commun. 295(3):668–72 [Jul. 19, 2002] but using approx. 50 ng of cDNA instead of genomic DNA per PCR reaction. The following primers were used: […]

[7] = basal and growth factor-stimulated (CK2 blockers), H-7 preliminary, not shown

Cc1cc(O)c2c(c1)C(=O)c1cc(O)cc(O)c1C2=O [emodin, 3-methyl-1,6,8-trihydroxyanthraquinone]
effect of kinase inhibitors on proliferation (bovine REC [1]; [7]): potently inhibited
effect of kinase inhibitors on secondary sprouting (bovine REC [2]; [7]): potently inhibited
effect of kinase inhibitors on migration (bovine REC [3]; [7]): potently inhibited
effect on growth factor-mediated cell migration (bovine REC [3]; four GFs 10 ng/ml each, 7 days, 0.5% serum, emodin 10 μM, DRB 15 μM): significant inhibitory effect
effect of kinase inhibitors on tube formation (REC; [7]): potently inhibited
neovascular tufts in fluorescein angiograms vs vehicle control ([4]; intraperitoneal): much less pronounced
retinal vascularization in fluorescein angiograms vs vehicle control ([4]; intraperitoneal): significantly less vascularization
diminution of retinal neovascularization (preretinal nuclei count) ([4]; two intraperitoneal injections daily, day 11 to 17 after birth, emodin 20–30 μg/g, vs untreated or vehicle): 70–75%
solubility in vehicle [5]: did not ensure emodin solubility

PDGF-BB: platelet derived growth factor (PDGF)-BB, human recombinant or purified angiogenic growth factor
effect of growth factors on REC proliferation (bovine REC [1]; growth factors 10 ng/mL each): potent stimulator
morphology of sprouting colonies after growth factor treatment (bovine REC [2]; 10 ng/mL): shorter and thicker sprouts
effect of growth factors on secondary sprouting (live cell number) (bovine REC [2]; 10 ng/mL, 0.5% FCS medium): potently stimulated; also recorded: most potent single growth factor; also recorded: potent stimulator; also recorded: dramatic increase; also recorded: greatly enhanced; also recorded: the most potent
additivity of effect on secondary sprouting with individual growth factors (bovine REC [2]; PDGF-BB 1 ng/mL ± VEGF, IGF-I, PlGF or FGF-2 10 ng/mL, added day 3): not additive or synergistic; also recorded: not additive
effect on secondary sprouting when added after tube collapse (bovine REC [2]; growth factor added after the tubes had collapsed (day 3)): again increased secondary sprouting
stimulation of secondary sprouting (fold, on average) (bovine REC [2]; growth factors, live cells by MTS): three-fold
additivity of effect on secondary sprouting with combinations of three growth factors (bovine REC [2]; three growth factors 10 ng/mL each plus fourth factor 0–100 ng/mL, added day 3): potentiated their responses; also recorded: additive
effect of growth factors on REC migration (bovine REC [3]; growth factors 10 ng/mL each): potent stimulator
effect of growth factors on tube formation (REC; growth factors 10 ng/mL each): pro-collapsing factor
telomerase activity of differentiated endothelial cells (telomerase; differentiative culture conditions (plastic, no MATRIGEL)): opposite effect
telomerase activity of sprouting colonies (telomerase; expansive culture conditions (MATRIGEL, low serum medium)): increases the activity of telomerase
expression of AC133, CD166, AML-1, uPA, tPA [6]: increased the expression
